Results reported in patent US10125135B2, “Chemical compounds” (AstraZeneca AB, priority 2016, dated 2018).

Target: estrogen receptor (ERα) in MCF-7 human breast cancer cell line (Homo sapiens (Human), UniProt P03372)
Test: Western blotting assay, MCF-7 cells
Format: cell-based
Details: 100 nM compound, 48 h; normalised to vehicle (0%) and 100 nM fulvestrant (100%)
Procedure: The ability of compounds to down-regulate estrogen receptor (ER) was assessed by western blotting using human breast cancer cell lines (MCF-7 and CAMA-1). Cells were plated into 12-well tissue culture-treated plates at 0.5×10^6/well in phenol red-free RPMI containing 2 mM L-glutamine and 5% (v/v) charcoal treated foetal calf serum (F6765, Sigma). Cells were incubated with compounds (100 nM) or vehicle control (0.1% DMSO) for 48 h at 37° C., 5% CO2 before washing once with PBS and lysing with 80 μl lysis buffer (25 mM Tris/HCl, 3 mM EDTA, 3 mM EGTA, 50 mM NaF, 2 mM sodium orthovanadate, 0.27 M sucrose, 10 mM β-glycerophosphate, 5 mM sodium pyrophosphate, 0.5% TritonX-100, pH 6.8) on ice.
Cells were scraped, sonicated and centrifuged prior to performing a protein assay (DC Bio-Rad Protein kit, 500-0116) and making samples to a protein concentration of 1-2 mg/m1 in lysis buffer containing 1× LDS Sample Buffer (NP0007, Invitrogen) and 1× NuPAGE sample reducing agent (NP0009, Invitrogen). Samples were boiled for 10 min at 95° C. and then frozen at −20° C. until ready for use.
10-20 μg protein was loaded onto 26-well Criterion gels (BioRad 345-0034). Gels were run at 125 V for 1 hr 25 min in running buffer (24 mM Tris Base Sigma, 192 mM Glycine, 3.5 mM SDS, made up in distilled water). Gels were then transferred at 30V for 2 hr in transfer buffer (25 mM Tris, 192 mM Glycine, 20% (v/v) methanol, pH 8.3, made up in distilled water) onto nitrocellulose membrane. The blot was stained with Ponceau S (P7170, Sigma) and cut according to appropriate molecular weight markers.
Membranes were blocked for 1 hour at room temp in 5% Marvel (w/v) in phosphate-buffered saline containing 0.05% Tween™ 20 (PBS/Tween). Blots were then incubated with anti-ERα (SP1) rabbit monoclonal antibody (Thermofisher) diluted 1:1000 at 4° C. overnight (with gentle shaking) followed by several washes with PBS/Tween. Secondary anti-rabbit HRP antibody (7074, CST) diluted 1:2000 dilution was incubated for 2 h at room temperature (with gentle shaking) followed by several washes with PBS/Tween. All antibodies were made up in 5% Marvel (w/v) in PBS/Tween.
The immunoblots were developed using Pierce WestDura chemiluminescent reagents (Thermo Scientific 34076) and developed/quantified on the G-box using Syngene software. Down-regulation of the ERα receptor was normalised to the vehicle control (0% down-regulation) and the 100 nM fulvestrant control (100% down-regulation) run within the same gel.

Sequence of estrogen receptor (ERα) in MCF-7 human breast cancer cell line (P03372 whole entry): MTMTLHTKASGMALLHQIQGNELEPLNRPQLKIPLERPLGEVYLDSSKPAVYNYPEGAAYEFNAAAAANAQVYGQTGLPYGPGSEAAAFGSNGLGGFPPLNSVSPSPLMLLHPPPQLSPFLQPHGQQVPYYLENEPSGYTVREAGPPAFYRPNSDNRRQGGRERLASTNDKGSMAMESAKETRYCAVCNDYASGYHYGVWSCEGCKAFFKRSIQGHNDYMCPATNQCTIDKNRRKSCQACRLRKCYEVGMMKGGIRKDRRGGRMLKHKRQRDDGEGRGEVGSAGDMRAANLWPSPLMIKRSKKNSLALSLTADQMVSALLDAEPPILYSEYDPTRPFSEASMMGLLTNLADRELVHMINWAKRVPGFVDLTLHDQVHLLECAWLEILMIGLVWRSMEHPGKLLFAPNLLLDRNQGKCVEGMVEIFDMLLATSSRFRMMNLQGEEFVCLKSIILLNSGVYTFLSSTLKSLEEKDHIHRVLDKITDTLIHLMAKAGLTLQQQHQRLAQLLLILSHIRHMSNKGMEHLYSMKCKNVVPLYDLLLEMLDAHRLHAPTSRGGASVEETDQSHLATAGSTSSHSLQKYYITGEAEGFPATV

Question: COc1cc(OCCN2CC(CF)C2)ccc1[C@@H]1c2ccc3[nH]ncc3c2C[C@@H](C)N1CC(C)(C)F [Example 5, (6S,8R)-7-(2-fluoro-2-methylpropyl)-6-(4-(2-(3-(fluoromethyl)azetidin-1-yl)ethoxy)-2-methoxyphenyl)-8-methyl-6,7,8,9-tetrahydro-3H-pyrazolo[4,3-f]isoquinoline] was tested. Which “MCF7 Western % ER deg vs Fv” value did it give?
Answer: 69%

Question: COc1cc(OCCN2CC(CF)C2)ccc1[C@@H]1c2ccc3[nH]ncc3c2C[C@@H](C)N1CC1(F)CC1 [Example 6, (6S,8R)-7-((1-fluorocyclopropyl)methyl)-6-(4-(2-(3-(fluoromethyl)azetidin-1-yl)ethoxy)-2-methoxyphenyl)-8-methyl-6,7,8,9-tetrahydro-3H-pyrazolo[4,3-f]isoquinoline] was tested. Which “MCF7 Western % ER deg vs Fv” value did it give?
Answer: 77%

Question: Which “MCF7 Western % ER deg vs Fv” value does the source give for C[C@@H]1Cc2c(ccc3[nH]ncc23)[C@@H](c2ccc(OCCN3CC(CF)C3)cn2)N1CC1(F)CC1 [Example 8, (6S,8R)-7-((1-fluorocyclopropyl)methyl)-6-(5-(2-(3-(fluoromethyl)azetidin-1-yl)ethoxy)pyridin-2-yl)-8-methyl-6,7,8,9-tetrahydro-3H-pyrazolo[4,3-f]isoquinoline] here?
Answer: 80%

Question: With COc1cc(OCCN2CC(CF)C2)ccc1[C@@H]1c2ccc3[nH]ncc3c2C[C@@H](C)N1CC(C)C [Example 9, (6S,8R)-6-(4-(2-(3-(fluoromethyl)azetidin-1-yl)ethoxy)-2-methoxyphenyl)-7-isobutyl-8-methyl-6,7,8,9-tetrahydro-3H-pyrazolo[4,3-f]isoquinoline] as the compound, how does the “MCF7 Western % ER deg vs Fv” value read?
Answer: 97%

Question: With C[C@@H]1Cc2c(ccc3[nH]ncc23)[C@@H](c2ccc(OCCN3CC(CF)C3)cn2)N1CC(F)(F)F [Example 49, (6S,8R)-6-(5-(2-(3-(fluoromethyl)azetidin-1-yl)ethoxy)pyridin-2-yl)-8-methyl-7-(2,2,2-trifluoroethyl)-6,7,8,9-tetrahydro-3H-pyrazolo[4,3-f]isoquinoline] as the compound, how does the “MCF7 Western % ER deg vs Fv” value read?
Answer: 98%

Question: Which “MCF7 Western % ER deg vs Fv” value does the source give for C[C@@H]1Cc2c(ccc3[nH]ncc23)[C@@H](c2ccc(OCCN3CC(CF)C3)cn2)N1CC(F)F [Example 51, (6S,8R)-7-(2,2-difluoroethyl)-6-(5-(2-(3-(fluoromethyl)azetidin-1-yl)ethoxy)pyridin-2-yl)-8-methyl-6,7,8,9-tetrahydro-3H-pyrazolo[4,3-f]isoquinoline] here?
Answer: 97%
